Measurements reported in US20080319065A1, “Systemic and Intrathecal Effects of a Novel Series of Phospholipase A2 Inhibitors on Hyperalgesia and Spinal Pge2 Release” (The Regents of the University of California, priority 2005, published 2008).

Experiments:
[1] = biological target: T1, Group VIA iPLA2 (GVIA PLA2) (Homo sapiens, UniProt O60733); test: In vitro Group VIA iPLA2 mixed micelle assay; assay type: biochemical; settings: for Inhibition of GVIA PLA2: at highest dose
T1 sequence (O60733 1-806): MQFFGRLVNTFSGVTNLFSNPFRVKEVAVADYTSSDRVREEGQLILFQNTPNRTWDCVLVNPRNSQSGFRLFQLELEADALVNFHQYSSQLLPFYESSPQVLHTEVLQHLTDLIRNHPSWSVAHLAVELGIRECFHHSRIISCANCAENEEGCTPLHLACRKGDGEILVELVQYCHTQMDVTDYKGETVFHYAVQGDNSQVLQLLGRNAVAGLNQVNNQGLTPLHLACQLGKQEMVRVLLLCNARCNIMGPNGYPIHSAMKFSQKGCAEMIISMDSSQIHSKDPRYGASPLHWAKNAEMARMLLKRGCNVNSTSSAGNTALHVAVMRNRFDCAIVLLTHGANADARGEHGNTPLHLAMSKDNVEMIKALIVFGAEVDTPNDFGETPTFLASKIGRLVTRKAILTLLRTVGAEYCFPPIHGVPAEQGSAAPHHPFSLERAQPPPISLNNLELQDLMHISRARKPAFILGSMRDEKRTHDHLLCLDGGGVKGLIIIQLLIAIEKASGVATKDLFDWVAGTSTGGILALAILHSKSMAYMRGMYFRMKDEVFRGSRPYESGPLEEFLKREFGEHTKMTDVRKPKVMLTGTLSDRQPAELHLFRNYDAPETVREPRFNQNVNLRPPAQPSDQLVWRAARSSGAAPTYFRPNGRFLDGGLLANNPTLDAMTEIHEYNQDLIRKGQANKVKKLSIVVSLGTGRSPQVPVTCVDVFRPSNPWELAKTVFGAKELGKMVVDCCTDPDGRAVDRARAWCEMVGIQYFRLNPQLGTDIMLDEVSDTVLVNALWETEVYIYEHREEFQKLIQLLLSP
Description: (§1) Numerous 2-oxoamides were tested for inhibition of PLA2s in in vitro assay systems. The data, summarized in Tables 1a, 1b and 2 are represented as XI(50) values unless otherwise noted. XI(50) is defined as the inhibitor concentration that produced 50% inhibition. XI(50) is used as opposed to the more common IC50 because GIVA and GVIA PLA2 are active at a two-dimensional lipid interface rather than in three-dimensional solution. (Deems, Anal. Biochem., 287:1-16, 2000). The 2-oxoamide inhibitors likely partition to the micelle interface and therefore must be represented as a percentage of surface concentration (mole fraction) as opposed to bulk concentration (molar units). (Kokotos, et al., J. Med. Chem., 45:2891-2893, 2002).
(§2) In vitro Group IV cPLA2 and Group VI iPLA2 assays were done as previously described (Kokotos, et al., supra, 2002). Briefly, 100 μM lipid substrate and 100,000 cpm radiolabeled analog were dried down under N2 and dissolved in assay buffer containing 400 μM Triton X-100 to yield a mixed micelle substrate solution. Inhibitors dissolved in DMSO were added to the reaction tubes and allowed to incubate with substrate for five minutes at 40° C. Pure enzyme was added to yield a final volume of 500 μl, and digestion was carried out at 40° C. for 30 minutes. Reactions were quenched and extracted using the Dole method and products were quantified by liquid scintillation counting. Percent inhibition was determined at a range of inhibitor mole fraction concentrations for XI(50) calculations.

[2] = biological target: T2, Group IVA cPLA2 (GIVA PLA2) (Homo sapiens, UniProt P47712); test: In vitro Group IVA cPLA2 mixed micelle assay; assay type: biochemical; settings: for Group IVA XI(50) (mole fraction): Table 1b; for Inhibition of GIVA PLA2: at highest dose
T2 sequence (P47712 1-749): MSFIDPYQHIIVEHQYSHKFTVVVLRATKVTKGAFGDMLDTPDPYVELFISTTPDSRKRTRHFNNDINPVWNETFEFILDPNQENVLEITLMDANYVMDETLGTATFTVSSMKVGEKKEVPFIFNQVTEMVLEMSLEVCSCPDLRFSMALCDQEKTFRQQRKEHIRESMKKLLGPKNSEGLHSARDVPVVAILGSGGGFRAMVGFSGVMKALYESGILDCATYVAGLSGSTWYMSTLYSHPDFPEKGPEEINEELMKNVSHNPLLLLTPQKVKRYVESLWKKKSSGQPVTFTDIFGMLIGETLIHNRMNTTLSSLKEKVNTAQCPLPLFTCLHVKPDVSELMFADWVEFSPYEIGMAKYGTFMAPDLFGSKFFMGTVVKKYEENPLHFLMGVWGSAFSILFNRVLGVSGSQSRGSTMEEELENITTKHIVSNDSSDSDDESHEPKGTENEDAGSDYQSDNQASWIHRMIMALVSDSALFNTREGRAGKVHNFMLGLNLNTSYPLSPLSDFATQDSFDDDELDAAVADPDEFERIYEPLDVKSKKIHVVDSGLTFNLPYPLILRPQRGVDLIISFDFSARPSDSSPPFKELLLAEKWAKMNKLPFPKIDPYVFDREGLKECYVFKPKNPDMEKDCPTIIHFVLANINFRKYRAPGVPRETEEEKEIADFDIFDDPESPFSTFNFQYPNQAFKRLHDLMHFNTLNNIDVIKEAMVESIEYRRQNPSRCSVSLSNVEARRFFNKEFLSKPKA
Description: as §1, §2

spinal release of PGE2 = test: Intrathecal dialysis and PGE2 assay; assay type: in vivo, rat; settings: 3 mg/kg IP pretreatment
Source text: For spinal drug injections, lumbar catheters were implanted in rats under isoflurane anesthesia according to a modification of the procedure described by Yaksh (Yaksh and Rudy, supra, 1976). A polyethylene catheter (PE-5; Spectranetics, 0.014 in OD) was inserted into the intrathecal space and advanced to the rostral edge of the lumbar enlargement through an incision in the atlanto-occipital membrane. Five days after implantation rats were entered into the study. In separate experiments to assess spinal prostaglandins release, rats were prepared with lumbar loop dialysis catheters with three lumens, as previously described, see (Yaksh, et al., supra, 2001).
In brief, the outer two lumens were connected to a length of dialysis tubing (10 Kda cut off). The catheter was then implanted intrathecally using the same technique as described above for the intrathecal catheter. A three-day interval was allowed to elapse prior to including the animal in a study. In all cases, the exclusion criteria were i) presence of any neurological sequelae, ii) 20% weight loss after implantation, or iii) catheter occlusion.
Spinal dialysis experiments to define the spinal release of PGE2 were conducted in unanesthetized rats 3 days after dialysis catheter implantation. A syringe pump (Harvard, Natick, Mass.) was connected and dialysis tubing was perfused with artificial cerebro spinal fluid (ACSF) at a rate of 10 μl/min. The ACSF contained (mM) 151.1 Na^+, 2.6 K^+, 0.9 Mg^2+, 1.3 Ca^2+, 122.7 Cl^−, 21.0 HCO3, 2.5 HPO4 and 3.5 dextrose and was bubbled with 95% O2/5% CO2 before each experiment to adjust the final pH to 7.2. The efflux (20 min per fraction) was collected in an automatic fraction collector (Eicom, Kyoto, Japan) at 4° C. […] The concentration of PGE2 in spinal dialysate was measured by ELISA using a commercially available kit (Assay Designs 90001, Assay Designs, Ann Arbor, Mich.). The antibody is selective for PGE2 with less than 2.0% cross-reactivity to PGF1, PGF2, 6-ketoPGF1, PGA2 or PGB2, but cross-reacts with PGE1 and PGE3.

[3] = test system: murine RAW 264.7 macrophage-like cell line; test: Long-term LPS stimulation, PGE2 release; assay type: cell-based; settings: low μM range
Description: Several 2-oxoamides were tested in the long-term lipopolysaccharide (LPS) stimulation pathway in the murine RAW 264.7 macrophage-like cell line. (Raschke, et al., Cell, 1978, 15, 261-267). This pathway requires GIVA PLA2 activity and results in the extracellular release of many eicosanoid compounds including the prostaglandin PGE2. (Gijon, et al., leukoc. Biol., 1999, 65, 330-336). […] In the low μM range, AX041 and AX073 reduced PGE2 release by roughly 40% (FIG. 1(D)). At 1 μM and 5 μM concentrations, small activations were often seen. The in vitro and cellular results together are consistent with the known roles of GVIA PLA2 given that AX010, a selective GVIA inhibitor, had no cellular effect. […] Inhibitors selective for GIVA PLA2 or dual specificity inhibitors reduce PGE2 levels, also consistent with the known role of GIVA PLA2 in PGE2 production.

GV sPLA2 = biological target: T3, GV sPLA2 (Homo sapiens, UniProt P39877); test: GV sPLA2 activity assay; assay type: biochemical; settings: at 0.091 mole fraction
T3 sequence (P39877 21-138): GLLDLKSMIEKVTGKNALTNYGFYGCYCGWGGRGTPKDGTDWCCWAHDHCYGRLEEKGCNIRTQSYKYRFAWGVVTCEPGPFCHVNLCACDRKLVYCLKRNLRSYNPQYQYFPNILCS
Description: GV sPLA2 activity was measured in a similar assay. The final assay buffer was composed of 50 mM Tris-HCl (pH 8.0) and 5 mM CaCl2. Each assay was performed in 500 μL total volume made up of 100 μL of 5× substrate solution (20 μL of 10 mM Triton X-100 and 80 μL assay buffer), 390 μL assay buffer, 10 μL GV sPLA2 solution (1 μL of 40 ng/μL stock and 9 μL assay buffer), and 5 μL of DMSO or 2-oxoamide in DMSO. The 5× substrate solution was prepared by drying down the phospholipids (in organic solvent) with N2. The appropriate volume of 10 mM Triton X-100 was added, heated and vortexed until clear. Then assay buffer was added to make a 5× substrate solution. The final mixed micelles were at 400 μM Triton X-100 and 100 μM DPPC (of which 100,000 cpm of ^14C-DPPC).

SMILES	Inhibition of GVIA PLA2 [1]	melting point [°C]	Inhibition of GIVA PLA2 [2]	also measured
CCC(=O)C(=O)NCCCC(=O)O [AX006]	ND (negligible inhibition (0-25%) at highest dose)	–	–	inhibition of GVIA PLA2 (iPLA2), in words [1]: do not inhibit GVIA PLA2; Group VIA XI(50), class ([1]; at 0.091 mole fraction): N.D. (25% inhibition or less at 0.091 mole fraction); inhibition of GIVA PLA2 (cPLA2), in words [2]: inhibit GIVA PLA2; Group IVA XI(50) (mole fraction) [2]: 0.024 ± 0.015 mole fraction; IT SP-evoked release of PGE2 in spinal dialysate (spinal release of PGE2): significant increase as compared to vehicle only
CCCCCCCCCCCCCCC(=O)C(=O)NC(C=CC(=O)O)CCCC (centres unmarked) [AX074, 4-(2-Oxo-hexadecanoylamino)-oct-2-enoic acid]	ND (negligible inhibition (0-25%) at highest dose)	65 to 67	–	inhibition of GVIA PLA2 (iPLA2), in words [1]: do not inhibit GVIA PLA2; Inhibition of GIVA PLA2, XI(50) [2]: XI(50) =0.003 ± 0.001 mole fraction; inhibition of GIVA PLA2 (cPLA2), in words [2]: inhibit GIVA PLA2
CCCCCCCCC=CCCCCCCCC(=O)C(=O)NCCCC(=O)OC [AX041, 4-(2-Oxo-nonadec-10-enoylamino)-butyric acid methyl ester]	–	–	–	reduction of PGE2 release [3]: roughly 40%
COC(=O)CCCNC(=O)C(=O)CCCCc1ccccc1 [AX038, 4-(2-Oxo-6-phenyl-hexanoylamino)-butyric acid methyl ester]	ND (negligible inhibition (0-25%) at highest dose)	52 to 54	ND (negligible inhibition (0-25%) at highest dose)	–
CCCCCCCCCCCCCCC(=O)C(=O)NCCCC(=O)OC(C)(C)C [AX057, tert-Butyl 4-[(2-oxohexadecanoyl)amino]butanoate]	–	61 to 62	–	efficacy against sPLA2 (GV sPLA2): 76.7%; Group VIA XI(50) (mole fraction) ([1]; Table 1b): 0.026 ± 0.014 mole fraction; Group IVA XI(50) (mole fraction) [2]: 0.031 ± 0.017 mole fraction; IT SP-evoked release of PGE2 in spinal dialysate (spinal release of PGE2): significant increase as compared to vehicle only
O=C(O)CCCNC(=O)C(=O)CCCCc1ccccc1 [AX035, 4-(2-Oxo-6-phenyl-hexanoylamino)-butyric acid]	ND (negligible inhibition (0-25%) at highest dose)	60 to 62	ND (negligible inhibition (0-25%) at highest dose)	–
O=C(O)CCCNC(=O)C(=O)CCCc1ccccc1 [AX036, 4-(2-Oxo-5-phenyl-pentanoylamino)-butyric acid]	ND (negligible inhibition (0-25%) at highest dose)	65 to 67	ND (negligible inhibition (0-25%) at highest dose)	–
COC(=O)CCCNC(=O)C(=O)CCCc1ccccc1 [AX037, 4-(2-Oxo-5-phenyl-pentanoylamino)-butyric acid methyl ester]	ND (negligible inhibition (0-25%) at highest dose)	30 to 31	ND (negligible inhibition (0-25%) at highest dose)	–
